This passage reports IC50 results from patent US9790169B2, “IDO inhibitors” (BRISTOL-MYERS SQUIBB COMPANY, priority 2015, dated 2017).

As a reminder, the IC50 is the midpoint of a concentration-inhibition curve.

The experiment has as its target human IDO1 (Homo sapiens, UniProt P14902). The experiment is described as follows: Assessment of human IDO-1 inhibitory activity in HEK cells (human IDO1/HEK293 cells, kynurenine read-out with Ehrlich reagent, absorbance 490 nm). To be noted: HEK Human IDO-1 cellular assay. On the set-up: expressed in transfected cells. Type of experiment: cell-based. An outline of the steps:
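HEK293 cells stably expressing human IDO1 were seeded at 10,000 per well in phenol red-free RPMI with 10% FBS, treated with compound for 20 h at 37 °C. Kynurenine was measured after TCA (0.2% final) and 30 min at 50 °C, using Ehrlich reagent, A490. IC50 normalised to DMSO (0%) and 500 nM reference standard (100%).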

Where only a bound is given, the exact number is not on record here.

human IDO1, sequence (P14902 whole entry): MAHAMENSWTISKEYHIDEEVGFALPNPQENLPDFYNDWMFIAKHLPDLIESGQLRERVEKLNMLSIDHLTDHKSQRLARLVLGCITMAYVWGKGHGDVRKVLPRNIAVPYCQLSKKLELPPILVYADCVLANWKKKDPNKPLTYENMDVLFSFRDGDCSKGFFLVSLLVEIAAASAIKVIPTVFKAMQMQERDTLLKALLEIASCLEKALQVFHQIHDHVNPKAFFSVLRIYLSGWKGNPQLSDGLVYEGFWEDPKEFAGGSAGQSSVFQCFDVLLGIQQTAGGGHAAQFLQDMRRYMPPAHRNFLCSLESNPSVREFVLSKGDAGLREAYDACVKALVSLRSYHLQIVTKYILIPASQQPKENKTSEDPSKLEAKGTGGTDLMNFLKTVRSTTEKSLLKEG

Consider `CCN(c1ccc(C(C)CC(=O)O)cc1NC(=O)Nc1ccccc1F)C1CCOCC1` (single isomer, unassigned) [Example 640, 3-(4-(ethyl(tetrahydro-2H-pyran-4-yl)amino)-3-(3-(2-fluorophenyl)ureido)phenyl) butanoic acid], for which the concentration for half-maximal inhibition (IC50) was above 50 nM. In the case of `CCN(c1ccc(C(C)CC(=O)O)cc1NC(=O)Nc1ccc(C)cc1)C1CCOCC1` (single isomer, unassigned) [Example 641, 3-(4-(ethyl(tetrahydro-2H-pyran-4-yl)amino)-3-(3-(p-tolyl)ureido)phenyl)butanoic acid], the 50% inhibitory concentration (IC50) is above 50 nM. Turning to `CCC(CC(=O)O)c1ccc(N(CC(C)C)C2CCCCC2)c(Nc2ccc(Cl)c(OC(F)F)c2)c1` (single isomer, unassigned) [Example 642], the IC50 was below 5 nM. Then `CCC(CC(=O)O)c1ccc(N(CC(C)C)C2CCCCC2)c(Nc2ccc(Cl)c(OCC(F)F)c2)c1` (single isomer, unassigned) [Example 643, 3-(3-((4-chloro-3-(2,2-difluoroethoxy)phenyl)amino)-4-(cyclohexyl (isobutyl)amino)phenyl) pentanoic acid], with below 5 nM. On to `CCC(CC(=O)O)c1ccc(N(CC(C)C)C2CCCCC2)c(Nc2ccc(Cl)c(OCC(F)(F)F)c2)c1` (single isomer, unassigned) [Example 644, 3-(3-((4-chloro-3-(2,2,2-trifluoroethoxy)phenyl)amino)-4-(cyclohexyl (isobutyl)amino)phenyl) pentanoic acid], for which the IC50 was below 50 nM. In the case of `CCC(CC(=O)O)c1ccc(N(CC(C)C)C2CCCCC2)c(Nc2ccc(Cl)c(OCC3CC3)c2)c1` (single isomer, unassigned) [Example 645, 3-(3-((4-chloro-3-(cyclopropylmethoxy)phenyl)amino)-4-(cyclohexyl (isobutyl)amino)phenyl) pentanoic acid] it was below 50 nM; in that of `CCCOc1ncc(Nc2cc(C(CC)CC(=O)O)ccc2N(CC(C)C)C2CCCCC2)cn1` (single isomer, unassigned) [Example 647, 3-(4-(cyclohexyl(isobutyl)amino)-3-((2-propoxypyrimidin-5-yl)amino)phenyl)pentanoic acid], below 5 nM.

Take `CCC(CC(=O)O)c1ccc(N(CC(C)C)C2CCCCC2)c(Nc2cnc(OC(C)C)nc2)c1` (single isomer, unassigned) [Example 648, 3-(4-(cyclohexyl(isobutyl)amino)-3-((2-isopropoxypyrimidin-5-yl)amino)phenyl)pentanoic acid]: the concentration for half-maximal inhibition (IC50) is below 5 nM. Then `CCC(CC(=O)O)c1ccc(N(CC(C)C)C2CCCCC2)c(Nc2ccc(Cl)c(OC(F)F)c2)c1` (single isomer, unassigned) [Example 649], with below 50 nM. On to `CCCN(CC1CC1)c1ccc(C(CC)CC(=O)O)cc1Nc1ccc(Cl)cc1` (single isomer, unassigned) [Example 656 E1, 3-(3-((4-Chlorophenyl)amino)-4-((cyclopropylmethyl)(propyl)amino)phenyl)pentanoic acid], for which the IC50 is below 5 nM. In the case of `CCCN(CC1CC1)c1ccc(C(CC)CC(=O)O)cc1Nc1cnc(OCC)nc1` (single isomer, unassigned) [Example 657, 3-(4-((cyclopropylmethyl) (propyl)amino)-3-((2-ethoxypyrimidin-5-yl)amino)phenyl)pentanoic acid] it was below 50 nM; in that of `CCCN(CC1CC1)c1ccc(C(CC)CC(=O)O)cc1Nc1ccc2nc(C)sc2c1` (single isomer, unassigned) [Example 658, 3-(4-((cyclopropylmethyl) (propyl)amino)-3-((2-methylbenzo[d]thiazol-6-yl)amino)phenyl)pentanoic acid], below 50 nM. On to `CCCN(CC1CC1)c1ccc(C(CC)CC(=O)O)cc1Nc1ccc2c(c1)OC(F)(F)O2` (single isomer, unassigned) [Example 659, 3-(4-((cyclopropylmethyl) (propyl)amino)-3-((2,2-difluorobenzo[d][1,3]dioxol-5-yl)amino)phenyl)pentanoic acid], for which the IC50 was below 50 nM.

`CCCN(CC1CC1)c1ccc(C(CC)CC(=O)O)cc1Nc1cnc(OCC)nc1` (single isomer, unassigned) [Example 660, 3-(4-((cyclopropylmethyl)(propyl)amino)-3-((2-ethoxypyrimidin-5-yl)amino)phenyl)pentanoic acid]: the IC50 was below 5 nM. Then `CCCN(CC1CC1)c1ccc(C(CC)CC(=O)O)cc1Nc1ccc2nc(C)sc2c1` (single isomer, unassigned) [Example 661, 3-(4-((cyclopropylmethyl)(propyl)amino)-3-((2-methylbenzo[d]thiazol-6-yl)amino)phenyl) pentanoic acid], with above 50 nM. In the case of `CCCN(CC1CC1)c1ccc(C(CC)CC(=O)O)cc1Nc1ccc2c(c1)OC(F)(F)O2` (single isomer, unassigned) [Example 662, 3-(4-((cyclopropylmethyl)(propyl)amino)-3-((2,2-difluorobenzo[d] [1,3]dioxol-5-yl)amino)phenyl) pentanoic acid], the 50% inhibitory concentration (IC50) was below 5 nM. For the compound `CCC(CC(=O)O)c1ccc(N2C[C@@H]3C[C@H]2CN3Cc2ccccc2)c(Nc2ccc(C)cc2)c1` (single isomer, unassigned) [Example 666 E1], the IC50 is below 5 nM. In the case of `COCC(CC(=O)O)c1ccc(N(CC2CC2)C2CCOCC2)c(NC(=O)Nc2ccc(C)cc2)c1` (single isomer, unassigned) [Example 676, 3-(4-((Cyclopropylmethyl)(tetrahydro-2H-pyran-4-yl)amino)-3-(3-(p-tolyl)ureido)phenyl)-4-methoxybutanoic acid], the IC50 was above 50 nM.

Regarding `COCC(CC(=O)O)c1ccc(N(CC2CC2)C2CCOCC2)c(NC(=O)Nc2ccc(Cl)cc2F)c1` (single isomer, unassigned) [Example 678, 3-(3-(3-(4-Chloro-2-fluorophenyl)ureido)-4-((cyclopropylmethyl)(tetrahydro-2H-pyran-4-yl)amino)phenyl)-4-methoxybutanoic acid], the IC50 is above 50 nM. In the case of `COCC(CC(=O)O)c1ccc(N(CC2CC2)C2CCOCC2)c(Nc2ccc(Cl)cc2)c1` (single isomer, unassigned) [Example 679, 3-(3-((4-Chlorophenyl)amino)-4-((cyclopropylmethyl)(tetrahydro-2H-pyran-4-yl)amino)phenyl)-4-methoxybutanoic acid] it was below 5 nM; in that of `COCC(CC(=O)O)c1ccc(N(CC2CC2)C2CCOCC2)c(Nc2ccc3nc(C)sc3c2)c1` (single isomer, unassigned) [Example 680, 3-(4-((cyclopropylmethyl) (tetrahydro-2H-pyran-4-yl)amino)-3-((2-methylbenzo[d]thiazol-6-yl)amino)phenyl)-4-methoxybutanoic acid], below 50 nM. Turning to `COCC(CC(=O)O)c1ccc(N(CC2CC2)C2CCOCC2)c(Nc2ccc(Cl)c(OCC(F)(F)F)c2)c1` (single isomer, unassigned) [Example 682, 3-(3-((4-chloro-3-(2,2,2-trifluoroethoxy)phenyl)amino)-4-((cyclopropylmethyl) (tetrahydro-2H-pyran-4-yl)amino)phenyl)-4-methoxybutanoic acid], the IC50 was above 50 nM.
